Results reported in ChEMBL document CHEMBL1201862, “PubChem BioAssay data set” (2004).
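Values below derive from 48-hour exposures of cells grown in 96-well plates, with endpoints linearly interpolated between the two concentrations bracketing the appropriate inhibition level. GI50 marks 50% less growth.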 Active and inactive are the calls of the source. Cut-off read from the data, not from the text of the source: active = GI50 up to about 1.1 µM and inactive = higher.

Tests used:
Test in all cases: NCI tumour cell line growth inhibition, 48 h
CAKI-1 = system: CAKI-1
SNB-78 = system: SNB-78
HCT-116 = system: HCT-116
SNB-75 = system: SNB-75
NCI-H23 = system: NCI-H23
M19-MEL = system: M19-MEL
SK-MEL-2 = system: SK-MEL-2
KM12 = system: KM12
DMS-114 = system: DMS-114
EKVX = system: EKVX
HCT-15 = system: HCT-15
OVCAR-3 = system: OVCAR-3
A498 = system: A498
A549 = system: A549
ACHN = system: ACHN
SK-MEL-28 = system: SK-MEL-28
UACC-257 = system: UACC-257
UO-31 = system: UO-31
NCI-H226 = system: NCI-H226
SF-295 = system: SF-295
HOP-62 = system: HOP-62
RXF 393 = system: RXF 393
NCI-H460 = system: NCI-H460
HCC 2998 = system: HCC 2998
KM-20L2 = system: KM-20L2
TK-10 = system: TK-10
OVCAR-4 = system: OVCAR-4
HOP-18 = system: HOP-18
SN12C = system: SN12C
OVCAR-8 = system: OVCAR-8
RPMI-8226 = system: RPMI-8226
UACC-62 = system: UACC-62
SF-268 = system: SF-268
IGROV-1 = system: IGROV-1
U-251 = system: U-251
HOP-92 = system: HOP-92
SF-539 = system: SF-539
LOX IMVI = system: LOX IMVI
SW-620 = system: SW-620
M14 = system: M14
DLD-1 = system: DLD-1
SK-OV-3 = system: SK-OV-3
COLO 205 = system: COLO 205
HT-29 = system: HT-29
SNB-19 = system: SNB-19
OVCAR-5 = system: OVCAR-5
Malme-3M = system: Malme-3M
786-0 = system: 786-0
XF498 = system: XF498
LXFL 529 = system: LXFL 529
MOLT-4 = system: MOLT-4
DMS-273 = system: DMS-273
HL-60 = system: HL-60
K562 = system: K562
SR = system: SR
CCRF-CEM = system: CCRF-CEM
SK-MEL-5 = system: SK-MEL-5
NCI-H522 = system: NCI-H522
NCI/ADR-RES = system: NCI/ADR-RES
MCF7 = system: MCF7

In the case of `CC(C(=O)c1ccccc1)C1(O)C(=O)Nc2ccc(Cl)cc21` (configuration not stated), the GI50 (CAKI-1) is reported as > 100 µM (inactive), the GI50 (SNB-78) is reported as > 100 µM (inactive) and the GI50 (HCT-116) is reported as > 100 µM (inactive). For the same compound, the GI50 (SNB-75) was > 100 µM (inactive), the GI50 (NCI-H23) was > 100 µM (inactive) and the GI50 (M19-MEL) was 16.7 µM (inactive). The GI50 (SK-MEL-2) was > 100 µM (inactive), the GI50 (KM12) was > 100 µM (inactive) and the GI50 (DMS-114) was 56.8 µM (inactive). The GI50 (EKVX) was > 100 µM (inactive), the GI50 (HCT-15) was 81.8 µM and the GI50 (OVCAR-3) was 37.4 µM (inactive). For the same compound, the GI50 (A498) was > 100 µM (inactive), the GI50 (A549) was > 100 µM (inactive) and the GI50 (ACHN) was > 100 µM (inactive). For the same compound, the GI50 (SK-MEL-28) was > 100 µM (inactive), the GI50 (UACC-257) was 31.6 µM (inactive) and the GI50 (UO-31) was 0.469 µM (active). For the same compound, the GI50 (NCI-H226) was > 100 µM (inactive), the GI50 (SF-295) was > 100 µM (inactive) and the GI50 (HOP-62) was > 100 µM (inactive). For the same compound, the GI50 (RXF 393) was > 100 µM (inactive), the GI50 (NCI-H460) was > 100 µM (inactive) and the GI50 (HCC 2998) was > 100 µM (inactive). For the same compound, the GI50 (KM-20L2) was > 100 µM (inactive), the GI50 (TK-10) was > 100 µM (inactive) and the GI50 (OVCAR-4) was 19.2 µM (inactive). For the same compound, the GI50 (HOP-18) was 12.8 µM (inactive), the GI50 (SN12C) was > 100 µM (inactive) and the GI50 (OVCAR-8) was > 100 µM (inactive). The GI50 (RPMI-8226) was 48 µM (inactive), the GI50 (UACC-62) was 42.2 µM (inactive) and the GI50 (SF-268) was > 100 µM (inactive). The GI50 (IGROV-1) was > 100 µM (inactive), the GI50 (U-251) was 53.8 µM (inactive) and the GI50 (HOP-92) was > 100 µM (inactive). The GI50 (SF-539) was > 100 µM (inactive), the GI50 (LOX IMVI) was 50.6 µM (inactive) and the GI50 (SW-620) was 49.1 µM (inactive). For the same compound, the GI50 (M14) was > 100 µM (inactive), the GI50 (DLD-1) was > 100 µM (inactive) and the GI50 (SK-OV-3) was > 100 µM (inactive). For the same compound, the GI50 (COLO 205) was > 100 µM (inactive), the GI50 (HT-29) was 75.7 µM (inactive) and the GI50 (SNB-19) was > 100 µM (inactive). For the same compound, the GI50 (OVCAR-5) was > 100 µM (inactive), the GI50 (Malme-3M) was > 100 µM (inactive) and the GI50 (786-0) was 40.3 µM (inactive). For the same compound, the GI50 (XF498) was > 100 µM (inactive) and the GI50 (LXFL 529) was 72.3 µM (inactive).
For `O=C1NC2(CCCCC2)C2=C1CCCCC2`, the GI50 (CAKI-1) was > 100 µM (inactive), the GI50 (SNB-78) was > 100 µM (inactive) and the GI50 (HCT-116) was > 100 µM (inactive). For the same compound, the GI50 (SNB-75) was > 100 µM (inactive), the GI50 (MOLT-4) was > 100 µM (inactive) and the GI50 (NCI-H23) was > 100 µM (inactive). For the same compound, the GI50 (M19-MEL) was > 100 µM (inactive), the GI50 (SK-MEL-2) was > 100 µM (inactive) and the GI50 (KM12) was > 100 µM (inactive). The GI50 (DMS-273) was > 100 µM (inactive), the GI50 (DMS-114) was > 100 µM (inactive) and the GI50 (EKVX) was > 100 µM (inactive). The GI50 (HCT-15) was greater than 100 µM, the GI50 (OVCAR-3) was > 100 µM (inactive) and the GI50 (A498) was > 100 µM (inactive). The GI50 (A549) was > 100 µM (inactive), the GI50 (ACHN) was > 100 µM (inactive) and the GI50 (SK-MEL-28) was > 100 µM (inactive). For the same compound, the GI50 (UACC-257) was > 100 µM (inactive), the GI50 (UO-31) was > 100 µM (inactive) and the GI50 (SF-295) was > 100 µM (inactive). For the same compound, the GI50 (HOP-62) was > 100 µM (inactive), the GI50 (RXF 393) was > 100 µM (inactive) and the GI50 (NCI-H460) was > 100 µM (inactive). For the same compound, the GI50 (TK-10) was > 100 µM (inactive), the GI50 (OVCAR-4) was > 100 µM (inactive) and the GI50 (HOP-18) was > 100 µM (inactive). The GI50 (SN12C) was > 100 µM (inactive), the GI50 (HL-60) was > 100 µM (inactive) and the GI50 (OVCAR-8) was > 100 µM (inactive). The GI50 (UACC-62) was > 100 µM (inactive), the GI50 (SF-268) was > 100 µM (inactive) and the GI50 (K562) was > 100 µM (inactive). For the same compound, the GI50 (IGROV-1) was > 100 µM (inactive), the GI50 (U-251) was > 100 µM (inactive) and the GI50 (HOP-92) was > 100 µM (inactive). The GI50 (SF-539) was > 100 µM (inactive), the GI50 (LOX IMVI) was > 100 µM (inactive) and the GI50 (SW-620) was > 100 µM (inactive). The GI50 (SR) was > 100 µM (inactive), the GI50 (M14) was > 100 µM (inactive) and the GI50 (DLD-1) was > 100 µM (inactive). The GI50 (CCRF-CEM) was > 100 µM (inactive), the GI50 (SK-OV-3) was > 100 µM (inactive) and the GI50 (COLO 205) was > 100 µM (inactive). The GI50 (HT-29) was > 100 µM (inactive), the GI50 (SNB-19) was > 100 µM (inactive) and the GI50 (OVCAR-5) was > 100 µM (inactive). The GI50 (Malme-3M) was > 100 µM (inactive), the GI50 (SK-MEL-5) was > 100 µM (inactive) and the GI50 (786-0) was > 100 µM (inactive). The GI50 (XF498) was > 100 µM (inactive), the GI50 (LXFL 529) was > 100 µM (inactive) and the GI50 (NCI-H522) was > 100 µM (inactive).
`NC1(C(=O)O)CCCC1` [CYCLOLEUCINE] was tested, and the GI50 (CAKI-1) was > 625 µM (inactive), the GI50 (SNB-78) was > 244 µM (inactive) and the GI50 (HCT-116) was > 625 µM (inactive). For the same compound, the GI50 (SNB-75) was > 625 µM (inactive), the GI50 (MOLT-4) was > 625 µM (inactive) and the GI50 (NCI-H23) was > 625 µM (inactive). The GI50 (NCI/ADR-RES) was > 625 µM (inactive), the GI50 (M19-MEL) was > 625 µM (inactive) and the GI50 (MCF7) was > 625 µM (inactive). The GI50 (SK-MEL-2) was > 625 µM (inactive), the GI50 (KM12) was > 625 µM (inactive) and the GI50 (DMS-273) was > 625 µM (inactive). For the same compound, the GI50 (DMS-114) was > 625 µM (inactive), the GI50 (EKVX) was > 578 µM (inactive) and the GI50 (HCT-15) was greater than 625 µM. The GI50 (OVCAR-3) was > 62.5 µM (inactive), the GI50 (A549) was > 625 µM (inactive) and the GI50 (SK-MEL-28) was > 625 µM (inactive). For the same compound, the GI50 (UACC-257) was > 625 µM (inactive), the GI50 (UO-31) was > 625 µM (inactive) and the GI50 (NCI-H226) was > 625 µM (inactive). For the same compound, the GI50 (SF-295) was > 625 µM (inactive), the GI50 (HOP-62) was > 625 µM (inactive) and the GI50 (RXF 393) was > 625 µM (inactive). For the same compound, the GI50 (NCI-H460) was > 625 µM (inactive), the GI50 (HCC 2998) was > 625 µM (inactive) and the GI50 (KM-20L2) was > 625 µM (inactive). For the same compound, the GI50 (OVCAR-4) was > 625 µM (inactive), the GI50 (HOP-18) was > 625 µM (inactive) and the GI50 (SN12C) was > 91 µM (inactive). For the same compound, the GI50 (HL-60) was > 625 µM (inactive), the GI50 (OVCAR-8) was > 625 µM (inactive) and the GI50 (RPMI-8226) was > 625 µM (inactive). For the same compound, the GI50 (UACC-62) was > 625 µM (inactive), the GI50 (SF-268) was > 177 µM (inactive) and the GI50 (K562) was > 625 µM (inactive). For the same compound, the GI50 (IGROV-1) was > 625 µM (inactive), the GI50 (U-251) was > 625 µM (inactive) and the GI50 (HOP-92) was > 625 µM (inactive). The GI50 (SF-539) was > 625 µM (inactive), the GI50 (LOX IMVI) was > 625 µM (inactive) and the GI50 (SW-620) was > 625 µM (inactive). The GI50 (DLD-1) was > 625 µM (inactive), the GI50 (CCRF-CEM) was > 625 µM (inactive) and the GI50 (SK-OV-3) was > 625 µM (inactive). For the same compound, the GI50 (COLO 205) was > 625 µM (inactive), the GI50 (HT-29) was > 625 µM (inactive) and the GI50 (SNB-19) was > 99.1 µM (inactive). The GI50 (OVCAR-5) was > 625 µM (inactive), the GI50 (Malme-3M) was > 625 µM (inactive) and the GI50 (SK-MEL-5) was > 625 µM (inactive). The GI50 (XF498) was 5.77 µM (inactive) and the GI50 (NCI-H522) was > 625 µM (inactive).
